{"source": "patent US8303962B2", "about": "“Antibacterial and antifungal peptides” (C3 Jian, Inc., priority 2009, dated 2012)", "key": {"Candida albicans": {"tested_on": "Candida albicans", "experiment": "Peptide binding to Candida albicans", "settings": "tested at 3.13, 6.25, 12.5 and 25.0 μM in 1× PBS or 20 mM HEPES, 150 mM NaCl, 1 mM MgCl2, 0.1% CTAB", "experimental": "The peptides in Table 6 were tested for binding efficiency at 3.13, 6.25, 12.5 and 25.0 μM concentrations in 1× phosphate-buffered saline or 20 mM HEPES (4-(2-hydroxyethyl)-1-piperazineethanesulfonic acid), 150 mM sodium chloride, 1 mM magnesium chloride and 0.1% CTAB."}, "M. furfur ATCC 14521": {"tested_on": "M. furfur ATCC 14521", "settings": "5 μM peptide, after 15 min of treatment, 30° C., 10^6 cells/ml, CFU vs no-peptide control", "experimental": "FIG. 1. Killing kinetics of PF-S028 L and D versions against M. furfur were determined using standard time-kill methods previously detailed (Eckert et al. (2006) Antimicrob Agents Chemother., 50: 1480-1488). Briefly, a log phase culture of M. furfur ATCC 14521 was diluted to 10^6 cells/ml in ATCC medium 1072. To the reaction tubes 5 μM of either PF-S028 L or PF-S028 D were added. A reaction tube to which 4 μl of 50% methanol served as the negative control. Reaction tubes were stored at 30° C. and at indicated intervals an aliquot was removed from the reaction tube and placed in a recovery tube where peptide was removed by dilution. An aliquot from the recovery tube was plated on ATCC medium 1072 agar plates and incubated at 30° C. until visible colonies formed. Colony forming units were calculated for the negative control (no peptide), PF-S028 L, and PF-S028 D treated cultures.\nIn some cases killing kinetic experiments were then conducted. Killing kinetics of PF-S028 L and D versions against M. furfur were determined as described in Eckert et al. (2006) Antimicrob Agents Chemother., 50: 1480-1488. Briefly, a log phase culture of M. furfur ATCC 14521 was diluted to 10^6 cells/ml in ATCC medium 1072. To the reaction tubes 5 μM of either PF-S028 L or PF-S028 D were added. […] Colony forming units were calculated for the negative control (no peptide), PF-S028 L, and PF-S028 D treated cultures."}, "B. subtilis": {"tested_on": "B. subtilis", "assay_type": "cell-based, Bacillus subtilis", "experimental": "(§1) In certain embodiments the MIC assays are performed as described herein in the Examples. For each organism, the media and growth conditions utilized is detailed in Table 8.\n(§2) In certain embodiments the MIC assays are performed as follows: For each organism, the media and growth conditions utilized is detailed in Table 8."}, "T. rubrum": {"tested_on": "T. rubrum", "assay_type": "cell-based, Trichophyton rubrum", "experimental": "as §1, §2"}}, "note": "Peptide text beside a SMILES is read from it."}
{"compound": "KLRSASKKSLQEKSCGIMPEKPAG (Antimicrobial peptide and/or targeting peptide) [PF-206]", "values": [{"measurement": "Target(s): form of Candida albicans bound", "setting": "Candida albicans", "value": "hyphae"}]}
{"compound": "VYRHLRFIDGKLVEIRLERK (Antimicrobial peptide and/or targeting peptide) [1T-36]", "values": [{"measurement": "Target(s): form of Candida albicans bound", "setting": "Candida albicans", "value": "hyphae"}]}
{"compound": "SKFELVNYASGCSCGADCKCASETECKCASKK (Antimicrobial peptide and/or targeting peptide) [PF-761]", "values": [{"measurement": "Target(s): form of Candida albicans bound", "setting": "Candida albicans", "value": "hyphae"}]}
{"compound": "GGTKEIVYQRG (Antimicrobial peptide and/or targeting peptide) [1T-68]", "values": [{"measurement": "Target(s): form of Candida albicans bound", "setting": "Candida albicans", "value": "yeast cells"}]}
{"compound": "GVGIGFIMMGVVGYAVKLVHIPIRYLIV (Antimicrobial peptide and/or targeting peptide) [PF-770]", "values": [{"measurement": "Target(s): form of Candida albicans bound", "setting": "Candida albicans", "value": "hyphae"}]}
{"compound": "RLARGRPTNLCGRRG (Antimicrobial peptide and/or targeting peptide) [PF-170]", "values": [{"measurement": "Target(s): form of Candida albicans bound", "setting": "Candida albicans", "value": "yeast cells"}]}
{"compound": "NRQAQGERAHGEQQG (Antimicrobial peptide and/or targeting peptide) [1T-70]", "values": [{"measurement": "Target(s): form of Candida albicans bound", "setting": "Candida albicans", "value": "yeast cells"}]}
{"compound": "AIEGVIKKGACFKLLRHEMF (Antimicrobial peptide and/or targeting peptide) [PF-167]", "values": [{"measurement": "Target(s): form of Candida albicans bound", "setting": "Candida albicans", "value": "yeast cells"}]}
{"compound": "HSSHL (Antimicrobial peptide and/or targeting peptide) [PF-060]", "values": [{"measurement": "Target(s): form of Candida albicans bound", "setting": "Candida albicans", "value": "hyphae"}]}
{"compound": "RFFNFEIKKSTKVDYVFAHVDLSDV (Antimicrobial peptide and/or targeting peptide) [PF-051]", "values": [{"measurement": "Target(s): form of Candida albicans bound", "setting": "Candida albicans", "value": "hyphae"}]}
{"compound": "LVRLA (Antimicrobial peptide and/or targeting peptide) [PF-636]", "values": [{"measurement": "Target(s): form of Candida albicans bound", "setting": "Candida albicans", "value": "hyphae"}]}
{"compound": "MPKARPVNHNKKKSKITIKSNFTLFYMFNP (Antimicrobial peptide and/or targeting peptide) [PF-634]", "values": [{"measurement": "Target(s): form of Candida albicans bound", "setting": "Candida albicans", "value": "hyphae"}]}
{"compound": "HARAAVGVAELPRGAAVEVELIAAVRP (Antimicrobial peptide and/or targeting peptide) [1T-65]", "values": [{"measurement": "Target(s): form of Candida albicans bound", "setting": "Candida albicans", "value": "hyphae"}]}
{"compound": "EVYSSPTNNVAITVQNN (Antimicrobial peptide and/or targeting peptide) [PF-178]", "values": [{"measurement": "Target(s): form of Candida albicans bound", "setting": "Candida albicans", "value": "hyphae"}]}
{"compound": "CC[C@H](C)[C@H](NC(=O)[C@@H](NC(=O)[C@H](CO)NC(=O)CN)C(C)C)C(=O)N[C@@H](CCCCN)C(=O)N[C@@H](CCCCN)C(=O)N[C@@H](CCCNC(=N)N)C(=O)N[C@@H](CCCNC(=N)N)C(=O)N[C@@H](CCCCN)C(=O)N[C@@H](CCCNC(=N)N)C(=O)N[C@@H](CCSC)C(=O)N[C@@H](CO)C(=O)N[C@@H](CCCCN)C(=O)N[C@@H](CCCCN)C(=O)N[C@@H](CCCCN)C(=O)N[C@@H](Cc1c[nH]cn1)C(=O)N[C@@H](CCCNC(=N)N)C(=O)N[C@@H](CCCCN)C(=O)N[C@@H](CCSC)C(=O)N[C@@H](CC(C)C)C(=O)N[C@@H](CCCNC(=N)N)C(=O)N[C@@H](CCCNC(=N)N)C(=O)N[C@H](C(=O)N[C@@H](CCCNC(=N)N)C(=O)N[C@H](C(=O)N[C@@H](CCC(N)=O)C(=O)N[C@@H](CCCNC(=N)N)C(=O)N[C@@H](CCCNC(=N)N)C(=O)N[C@@H](CCCCN)C(=O)N[C@@H](CC(C)C)C(=O)NCC(=O)N[C@@H](CCCCN)C(=O)O)C(C)C)[C@@H](C)O", "note": "[PF-S028 L]", "values": [{"measurement": "M. furfur killed", "setting": "M. furfur ATCC 14521", "value": 39, "unit": "%"}]}
{"compound": "CC[C@@H](C)[C@@H](NC(=O)[C@H](NC(=O)[C@@H](CO)NC(=O)CN)C(C)C)C(=O)N[C@H](CCCCN)C(=O)N[C@H](CCCCN)C(=O)N[C@H](CCCNC(=N)N)C(=O)N[C@H](CCCNC(=N)N)C(=O)N[C@H](CCCCN)C(=O)N[C@H](CCCNC(=N)N)C(=O)N[C@H](CCSC)C(=O)N[C@H](CO)C(=O)N[C@H](CCCCN)C(=O)N[C@H](CCCCN)C(=O)N[C@H](CCCCN)C(=O)N[C@H](Cc1c[nH]cn1)C(=O)N[C@H](CCCNC(=N)N)C(=O)N[C@H](CCCCN)C(=O)N[C@H](CCSC)C(=O)N[C@H](CC(C)C)C(=O)N[C@H](CCCNC(=N)N)C(=O)N[C@H](CCCNC(=N)N)C(=O)N[C@@H](C(=O)N[C@H](CCCNC(=N)N)C(=O)N[C@@H](C(=O)N[C@H](CCC(N)=O)C(=O)N[C@H](CCCNC(=N)N)C(=O)N[C@H](CCCNC(=N)N)C(=O)N[C@H](CCCCN)C(=O)N[C@H](CC(C)C)C(=O)NCC(=O)N[C@H](CCCCN)C(=O)O)C(C)C)[C@H](C)O", "note": "[PF-S028 D]", "values": [{"measurement": "M. furfur killed", "setting": "M. furfur ATCC 14521", "value": "over 99%"}]}
{"compound": "VVRRFQGM (Antimicrobial peptide and/or targeting peptide) [PF-141]", "values": [{"measurement": "Target(s): form of Candida albicans bound", "setting": "Candida albicans", "value": "hyphae"}]}
{"compound": "RLTSNQFLTRITPFVFAQH (Antimicrobial peptide and/or targeting peptide) [PF-176]", "values": [{"measurement": "Target(s): form of Candida albicans bound", "setting": "Candida albicans", "value": "yeast cells"}]}
{"compound": "CC[C@H](C)[C@H](NC(=O)[C@H](CC(N)=O)NC(=O)[C@@H](NC(=O)[C@H](Cc1ccccc1)NC(=O)[C@H](CCC(=O)O)NC(=O)CNC(=O)[C@H](CCC(N)=O)NC(=O)[C@H](Cc1ccccc1)NC(=O)[C@@H](N)CCCCN)[C@@H](C)O)C(=O)NCC(=O)N[C@@H](CCC(N)=O)C(=O)N[C@@H](CO)C(=O)N[C@@H](Cc1ccc(O)cc1)C(=O)N[C@H](C(=O)N[C@H](C(=O)N[C@@H](CO)C(=O)N[C@@H](C)C(=O)N[C@@H](CO)C(=O)N[C@@H](Cc1c[nH]cn1)C(=O)N[C@@H](CCSC)C(=O)N[C@@H](CO)C(=O)N[C@H](C(=O)N[C@@H](CO)C(=O)N[C@@H](CC(C)C)C(=O)N[C@@H](CC(N)=O)C(=O)N[C@H](C(=O)NCC(=O)N[C@@H](CCCCN)C(=O)O)[C@@H](C)O)[C@@H](C)O)C(C)C)[C@@H](C)CC", "note": "[PF-583] (H-KFQGEFTNIGQSYIVSASHMSTSLNTGK-OH; N-terminus and C-terminus assumed)", "values": [{"measurement": "Target(s): form of Candida albicans bound", "setting": "Candida albicans", "value": "hyphae"}]}
{"compound": "CC(C)[C@H](NC(=O)[C@H](CCCCN)NC(=O)[C@H](Cc1c[nH]c2ccccc12)NC(=O)CNC(=O)[C@@H](NC(=O)[C@H](CC(=O)O)NC(=O)[C@H](CO)NC(=O)[C@H](Cc1c[nH]cn1)NC(=O)CNC(=O)[C@@H]1CCCN1C(=O)[C@@H](NC(=O)[C@H](CCCNC(=N)N)NC(=O)[C@H](CO)NC(=O)[C@@H](N)Cc1c[nH]c2ccccc12)C(C)C)[C@@H](C)O)C(=O)N[C@@H](Cc1c[nH]c2ccccc12)C(=O)N[C@@H](Cc1c[nH]cn1)C(=O)N[C@@H](CCCNC(=N)N)C(=O)N[C@@H](Cc1c[nH]c2ccccc12)C(=O)O", "note": "[PF-547] (H-WSRVPGHSDTGWKVWHRW-OH; N-terminus and C-terminus assumed)", "values": [{"measurement": "MIC", "setting": "B. subtilis", "value": 25, "unit": "µM"}, {"measurement": "MIC", "setting": "T. rubrum", "value": 25, "unit": "µM"}]}
{"compound": "MIHLTKQNTMEALHFIKQFYDMFFILNFNV (Antimicrobial peptide and/or targeting peptide) [PF-040]", "values": [{"measurement": "Target(s): form of Candida albicans bound", "setting": "Candida albicans", "value": "hyphae"}]}
{"compound": "NILFGIIGFVVAMTAAVIVTAISIAK (Antimicrobial peptide and/or targeting peptide) [PF-543]", "values": [{"measurement": "Target(s): form of Candida albicans bound", "setting": "Candida albicans", "value": "hyphae"}]}
{"compound": "CC[C@H](C)[C@H](NC(=O)[C@H](C)NC(=O)[C@@H]1CCCN1C(=O)[C@H](Cc1ccccc1)NC(=O)[C@@H]1CCCN1C(=O)[C@H](CC(C)C)NC(=O)[C@@H](N)C(C)C)C(=O)N1CCC[C@H]1C(=O)N[C@@H](CC(C)C)C(=O)N[C@@H](CO)C(=O)N[C@@H](CCCNC(=N)N)C(=O)N[C@@H](CCCNC(=N)N)C(=O)N[C@@H](CCCNC(=N)N)C(=O)N[C@@H](C)C(=O)N[C@@H](CS)C(=O)N[C@H](C(=O)N[C@@H](C)C(=O)N[C@@H](C)C(=O)N1CCC[C@H]1C(=O)N[C@@H](CCCNC(=N)N)C(=O)N1CCC[C@H]1C(=O)N[C@@H](CCCNC(=N)N)C(=O)N[C@@H](CO)C(=O)N[C@@H](CCCNC(=N)N)C(=O)N[C@@H](CCC(N)=O)C(=O)N[C@@H](CCCNC(=N)N)C(=O)N[C@@H](C)C(=O)N[C@@H](CO)C(=O)O)C(C)C", "note": "[PF-168] (H-VLPFPAIPLSRRRACVAAPRPRSRQRAS-OH; N-terminus and C-terminus assumed)", "values": [{"measurement": "Target(s): form of Candida albicans bound", "setting": "Candida albicans", "value": "yeast cells"}]}
{"compound": "EILNNNQVIKELTMKYKTQFESNLGGWTARARR (Antimicrobial peptide and/or targeting peptide) [PF-580]", "values": [{"measurement": "Target(s): form of Candida albicans bound", "setting": "Candida albicans", "value": "hyphae"}]}
{"compound": "DLRKAK (Antimicrobial peptide and/or targeting peptide) [PF-024]", "values": [{"measurement": "Target(s): form of Candida albicans bound", "setting": "Candida albicans", "value": "hyphae"}]}
